Assay results reported in patent US10054583B2, “Nuclear factor-erythroid 2 related factor 2 (NRF2) biosensors and modulators of NRF2” (TEMPLE UNIVERSITY OF THE COMMONWEALTH SYSTEM OF HIGHER …, priority 2012, dated 2018).
Entries after “also recorded” stand apart in the source; their conditions may differ.

Legend:
Assay type in all cases: cell-based
[1] = test system: translation of Luciferase Reporter under translational control mediated by Sg3 of Nrf2; test: Nrf2 translation biosensor screen: firefly luciferase reporter fused with Seg3, stop codons in between; library of 127 compounds; details: FIG. 3B; screen of library of 127 compounds
Excerpt: (§1) FIGS. 3A to 3D show the construction of a translation reporter system to identify compounds that derepress Nrf2 translation. FIG. 3A is a schematic representation showing that the sequence of the firefly luciferase reporter gene was fused with the Seg3 fragment to create a translation reporter system i.e. a biosensor for Nrf2. […] A small library of 127 compounds containing more than 80 known antioxidants was screened to identify potential activators of Nrf2 translation. […] HEK 293T cells were transfected with a construct a Nrf2 lacking amino acids 17-32 to prevent the degradation mediated by Keap1.
A construct containing the luciferase gene fused with the Seg3 with stop codons in between the two fragments was developed. A library of 127 well known antioxidants was screened.
A stop codon is indicated with bold letters and a dark grey shade. The sequence corresponding to sg3 is indicated in the light grey shade area. The sequence was expressed using a plasmid with a CMV promoter.

Nrf2 = test: Nuclear translocation of Nrf2: subcellular fractionation and Western blot of HEK293T cells transfected with wildtype Nrf2; details: FIG. 6; HEK293T cells with wildtype Nrf2, harvested 12 hours after treatment, cytoplasm vs nucleus
Procedure: HEK293T cells were transfected with a plasmid containing the wildtype sequence of Nrf2. After 24 hours the cells were treated with Apigenin. After additional 12 hours, the cells were harvested and subjected to subcellular fractionation. The presence of Nrf2 in the cytoplasm and nucleus was evaluated using Western blotting. Additionally, tubulin and histone 3 were identified by Western blot to validate the subcellular fractionation.

[2] = test system: Nrf2 translation (entire Nrf2 ORF mRNA); test: Western blot of Nrf2 translation in HEK 293T cells transfected with Nrf2 construct lacking amino acids 17-32; details: for Nrf2 translation (Nrf2 protein expression by blot): FIG. 3C / FIG. 4, HEK 293T cells, Nrf2 construct lacking amino acids 17-32 (no Keap1-mediated degradation)
Excerpt: as §1
HEK293T cells were transfected with an Nrf2 construct lacking amino acids that are required for KEAP1 mediated degradation. 24 hours later the cells were treated with Apigenin in incremental doses to evaluate Nrf2 translation activation by using Western blotting.

Structure (SMILES) | translation of the Luciferase Reporter under translational control mediated by Sg3 [1] | nuclear translocation of Nrf2 (Nrf2) | Nrf2 translation (Nrf2 protein expression by blot) [2] | Nrf2 translation (Nrf2 protein expression by blot) ([2]; listed as apigenin) | Nrf2 translation activation, dose dependence ([2]; FIG. 5, HEK293T cells, treated 24 hours after transfection with incremental doses, Western blotting)
O=c1cc(-c2ccc(O)cc2)oc2cc(O)cc(O)c12 [Apigenin] | promoted the translation of Nrf2; also recorded: increased the translation | nuclear translocation of Nrf2 | potent activator of NRF2 translation | potent inducers of Nrf2 translation; also recorded: most potent inducer of Nrf2 translation | activates Nrf2 translation in a dose-dependent manner
CC(C)(C)c1cc(O)ccc1O [TBHQ] |  |  | no effect |  | 
O=c1cc(-c2ccc(O)c(O)c2)oc2cc(O)cc(O)c12 [luteolin] |  |  | increase the translation of Nrf2 |  | 
O=c1c(O)c(-c2ccc(O)c(O)c2)oc2cc(O)cc(O)c12 [quercetin] |  |  | increase the translation of Nrf2 |  | 
Oc1ccc(C=Cc2cc(O)cc(O)c2)cc1 [resveratrol] | promoted the translation of Nrf2; also recorded: increased the translation |  | potent inducers of Nrf2 translation |  | 
C[S+]([O-])CCCCN=C=S (centres unmarked) [sulforaphane] |  |  | no effect |  | 
